According to patent US20240082218A1, “PHARMACEUTICAL COMBINATIONS COMPRISING A KRAS G12C INHIBITOR AND USES OF A KRAS G12C INHIBITOR FOR THE TREATMENT OF CANCERS” (priority 2020, published 2024):

Test system: Lu99 KRAS G12C lung carcinoma xenograft
Test: Anti-tumor efficacy in Lu99 KRAS G12C lung carcinoma xenografts
Type: in vivo, mice
Settings: Lu99, oral, Compound A 100 mg/kg once daily, alone or in combination
Method: It carries the allele NM_033360.4(KRAS):c.34G>T and consequently a heterozygous KRAS Gly12Cys mutation. Lu99 cells were grown in sterile conditions in a 37° C. incubator with 5% CO2 for two weeks. The cells were kept in RPMI media supplemented with 10% FCS, 2 mM L-Glutamin, 1 mM sodium pyruvate and 10 mM HEPES, and split 1:6 every 3 days. […] On the day of injection, cells were harvested after 8 passages in total, including passages from the vendor. Cells were resuspended in 50% HBSS and 50% Matrigel at a final concentration of 10·10^6 cells/ml.
Experiments were performed with female nude mice (Charles River Laboratories, Crl:NU(NCr)-Foxn1nu Homozygous). […] Animals were allowed to accommodate at least for 7 days.
Mice were injected subcutaneously with Lu99 human NSCLC cells to induce xenograft tumors and randomized into treatment groups when the mean tumor volume reached ˜250 mm^3.
The control group received a solution of 0.1% Tween 80 (Fisher Scientific AG #BP338-500) and 0.5% Methylcellulose in water.
The treatment period was between 9 to 28 days, depending on the groups.
Tumor growth was monitored regularly post cell inoculation and animals were randomized into treatment groups (n=6) when TV reached appropriate volume. During the treatment period, xenograft tumor sizes were measured about 2-3 times per week manually with calipers, and the TV was estimated in mm^3 using the formula: Length×Width^2/2.
Mice were injected subcutaneously with Lu99 human NSCLC cells to induce xenograft tumors and randomized into treatment groups when the mean tumor volume reached ˜200 mm^3. […] The treatment period was between 14 to 35 days, depending on the groups. Animals treated with vehicle were terminated at day 14. […] Tumor volumes were recorded and are represented as mean±SEM (standard error of the mean) for each group. Anti-tumor response of treatment groups vs. vehicle group was calculated at day 14 as % T/C or % regression.

Question: Which results are given for `C[C@@H]1OCC2(CCN(c3cnc(Sc4ccnc(N)c4Cl)c(N)n3)CC2)[C@@H]1N` [TNO155, (3S,4S)-8-(6-amino-5-((2-amino-3-chloropyridin-4-yl)thio)pyrazin-2-yl)-3-methyl-2-oxa-8-azaspiro[4.5]decan-4-amine]?
Answer: anti-tumor response (Example 7) (TNO155 10 mg/kg twice daily continuous): slight tumor growth delay; anti-tumor response (Example 6) (TNO155 10 mg/kg twice daily, up to 28 days): moderate anti-tumor response
